The record followed here is publication PMC6257465, “Synthesis of N-(Methoxycarbonylthienylmethyl)thioureas and Evaluation of Their Interaction with Inducible and Neuronal Nitric Oxide Synthase” (Molecules, 2010).

Structures are written as SMILES.

For this experiment, the target named is T1, recombinant human iNOS (hiNOS) (Homo sapiens, UniProt P35228).
T1 construct: gene NOS2; human iNOS cDNA in pEFIRES-P, overexpressed in HT1080 fibrosarcoma cells; post-mitochondrial supernatant, arginine removed with Dowex-50W; homodimer
T1 sequence (P35228 whole entry): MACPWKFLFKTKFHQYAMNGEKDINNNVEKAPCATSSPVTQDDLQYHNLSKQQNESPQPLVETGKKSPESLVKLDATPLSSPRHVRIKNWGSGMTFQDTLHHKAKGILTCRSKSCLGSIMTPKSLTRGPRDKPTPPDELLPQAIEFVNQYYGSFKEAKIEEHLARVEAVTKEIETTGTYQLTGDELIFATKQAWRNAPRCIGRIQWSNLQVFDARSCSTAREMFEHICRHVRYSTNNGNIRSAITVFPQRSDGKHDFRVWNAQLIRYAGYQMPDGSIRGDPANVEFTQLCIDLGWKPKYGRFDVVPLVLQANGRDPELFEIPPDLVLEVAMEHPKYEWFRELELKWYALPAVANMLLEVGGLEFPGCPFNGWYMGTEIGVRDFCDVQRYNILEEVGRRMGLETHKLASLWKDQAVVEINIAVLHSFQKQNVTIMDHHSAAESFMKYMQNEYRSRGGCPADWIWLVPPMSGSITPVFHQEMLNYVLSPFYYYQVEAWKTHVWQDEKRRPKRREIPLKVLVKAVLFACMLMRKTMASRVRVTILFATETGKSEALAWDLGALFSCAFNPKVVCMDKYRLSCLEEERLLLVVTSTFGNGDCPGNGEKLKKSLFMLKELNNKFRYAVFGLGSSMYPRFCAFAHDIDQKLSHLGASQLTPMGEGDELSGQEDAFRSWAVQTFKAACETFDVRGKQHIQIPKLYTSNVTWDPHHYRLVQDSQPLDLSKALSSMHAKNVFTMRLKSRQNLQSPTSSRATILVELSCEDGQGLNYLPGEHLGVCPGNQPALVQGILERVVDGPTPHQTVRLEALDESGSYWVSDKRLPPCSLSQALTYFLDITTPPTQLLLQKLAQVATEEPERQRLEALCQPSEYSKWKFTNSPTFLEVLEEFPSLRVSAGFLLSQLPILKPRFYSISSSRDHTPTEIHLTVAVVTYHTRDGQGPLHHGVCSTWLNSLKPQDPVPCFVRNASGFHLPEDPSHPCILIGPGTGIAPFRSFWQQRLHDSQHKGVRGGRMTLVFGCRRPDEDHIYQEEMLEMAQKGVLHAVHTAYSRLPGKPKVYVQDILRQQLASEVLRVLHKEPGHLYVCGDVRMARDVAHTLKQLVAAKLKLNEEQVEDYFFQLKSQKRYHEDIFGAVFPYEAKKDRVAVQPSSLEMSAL
In words: L-[U-14C]-arginine to L-[U-14C]-citrulline conversion assay. Format: biochemical. The settings on record: 100 µM, test compound added simultaneously with L-[U-14C]-arginine. An excerpt:
L-[U-14C]-arginine to L-[U-14C]-citrulline conversion assay on recombinant human iNOS (hiNOS)

In the case of `COC(=O)c1ccc(CNC(N)=S)s1` [compound 13, Methyl 5-(thioureidomethyl)thiophene-2-carboxylate], the “% Stimulation of hiNOS activity ^a / t = 0 min ^b” value is “+62 ± 2%”.

Turning to `COC(=O)c1cc(CNC(N)=S)cs1` [compound 25, Methyl 4-(thioureidomethyl)thiophene-2-carboxylate], the “% Stimulation of hiNOS activity ^a / t = 0 min ^b” value is given as “+37 ± 27%”.
